In ChEMBL document CHEMBL1158999, “Biologically active gamma-lactones and methylketoalkenes from Lindera benzoin” (J Nat Prod, 1992):
≈ marks a conversion by molar mass, not a printed value.

Experiments:
Artemia salina = assay: Toxicity in Artemia salina; type: organism-based; conditions: in vivo
A549 = assay: Cytotoxicity against human A549 cells; type: functional; conditions: read-out: ED50 (the source's name)
HT-29 = assay: Cytotoxicity against human HT-29 cells; type: functional; conditions: read-out: ED50 (the source's name)
MCF7 = assay: Cytotoxicity against human MCF7 cells; type: functional; conditions: read-out: ED50 (the source's name)
[1] = tested on: Agrobacterium tumefaciens; assay: Antitumor activity against Agrobacterium tumefaciens-induced crown gall tumor in potato tubers at by potato disk assay; type: functional
[2] = tested on: Diabrotica undecimpunctata; assay: Insecticidal activity against Diabrotica undecimpunctata assessed as mortality at 12 ppm; type: functional
Spodoptera eridania = assay: Insecticidal activity against Spodoptera eridania assessed as mortality at 12 ppm; type: functional
Tetranychus urticae = assay: Insecticidal activity against Tetranychus urticae assessed as mortality at 12 ppm; type: functional
Aphis gossypii = assay: Insecticidal activity against Aphis gossypii assessed as mortality at 12 ppm; type: functional

CCCCC/C=C\C/C=C\CCCC(C)=O
LC50 (Artemia salina): 2.9 ppm
EC50 (A549): > 10 µg/mL
EC50 (HT-29): > 10 µg/mL
EC50 (MCF7): > 10 µg/mL

CC/C=C\C/C=C\C/C=C\CCCC(C)=O
LC50 (Artemia salina): 3 ppm
EC50 (A549): > 10 µg/mL
EC50 (HT-29): 3.01 µg/mL (≈ 13.7 µM)
EC50 (MCF7): 5.15 µg/mL (≈ 23.4 µM)

C=C[C@](C)(O)CC/C=C(/C)CCC=C(C)C
LC50 (Artemia salina): 5.75 ppm
EC50 (A549): > 10 µg/mL
EC50 (HT-29): > 10 µg/mL
EC50 (MCF7): > 10 µg/mL

COc1cccc2c1C(=O)c1c(O)c3c(c(O)c1C2=O)C[C@@](O)(C(=O)CO)C[C@@H]3O[C@H]1C[C@H](N)[C@H](O)[C@H](C)O1 [DOXORUBICIN]
LC50 (Artemia salina): 0.088 ppm
EC50 (A549): 0.0018 µg/mL (≈ 0.00331 µM)
EC50 (HT-29): 0.012 µg/mL (≈ 0.0221 µM)
EC50 (MCF7): 0.051 µg/mL (≈ 0.0938 µM)

C=C1OC(=O)/C(=C/CCCCCCCCCCCCCCC)[C@@H]1O [ISOLINDERANOLIDE]
LC50 (Artemia salina): 0.96 ppm
inhibition (INH) [1]: 44.9%
EC50 (A549): 4.57 µg/mL (≈ 13.6 µM)
EC50 (HT-29): 3.07 µg/mL (≈ 9.12 µM)
Activity [2]: 20%
Activity (Spodoptera eridania): 0%
Activity (Tetranychus urticae): 0%
Activity (Aphis gossypii): 0%
EC50 (MCF7): 3.12 µg/mL (≈ 9.27 µM)

C=C1OC(=O)/C(=C/CCCC/C=C\CCCCCCCCC)[C@@H]1O [ISOLINDERENOLIDE]
LC50 (Artemia salina): 0.52 ppm
inhibition (INH) [1]: 41.4%
EC50 (A549): 3.01 µg/mL (≈ 9 µM)
EC50 (HT-29): 1.9 µg/mL (≈ 5.68 µM)
Activity [2]: 0%
Activity (Spodoptera eridania): 0%
Activity (Tetranychus urticae): 0%
Activity (Aphis gossypii): 0%
EC50 (MCF7): 2.58 µg/mL (≈ 7.71 µM)

C=C1OC(=O)/C(=C/CCCCCCCCCCCCC)[C@@H]1O [ISOOBTUSILACTONE A]
LC50 (Artemia salina): 0.72 ppm
EC50 (A549): 3.75 µg/mL (≈ 12.2 µM)
EC50 (HT-29): 2.48 µg/mL (≈ 8.04 µM)
Activity [2]: 0%
Activity (Spodoptera eridania): 0%
Activity (Tetranychus urticae): 0%
Activity (Aphis gossypii): 0%
EC50 (MCF7): 2.31 µg/mL (≈ 7.49 µM)

C=CCCCCCCCCC/C=C1/C(=O)OC(=C)[C@H]1O [ISOOBUTASILACTONE]
LC50 (Artemia salina): 0.065 ppm
EC50 (A549): > 10 µg/mL
EC50 (HT-29): 2.92 µg/mL (≈ 10.5 µM)
Activity [2]: 0%
Activity (Spodoptera eridania): 0%
Activity (Tetranychus urticae): 0%
Activity (Aphis gossypii): 0%
EC50 (MCF7): 4.6 µg/mL (≈ 16.5 µM)

C=C1OC(=O)/C(=C\CCCCCCCCCCCCCCC)[C@@H]1O [LINDERANOLIDE]
LC50 (Artemia salina): 5.23 ppm
EC50 (A549): 0.928 µg/mL (≈ 2.76 µM)
EC50 (HT-29): 30.5 µg/mL (≈ 90.6 µM)
EC50 (MCF7): 73.6 µg/mL (≈ 219 µM)

C=C1OC(=O)/C(=C\CCCCCCCCCCCCC)[C@@H]1O [OBTUSILACTONE A]
LC50 (Artemia salina): 0.89 ppm
EC50 (A549): > 10 µg/mL
EC50 (HT-29): 2.93 µg/mL (≈ 9.5 µM)
Activity [2]: 0%
Activity (Spodoptera eridania): 0%
Activity (Tetranychus urticae): 0%
Activity (Aphis gossypii): 0%
EC50 (MCF7): 5.12 µg/mL (≈ 16.6 µM)

C=CCCCCCCCCC/C=C1\C(=O)OC(=C)[C@H]1O [OBTUSILACTONE]
LC50 (Artemia salina): 0.035 ppm
inhibition (INH) [1]: 64.2%
EC50 (A549): 3.32 µg/mL (≈ 11.9 µM)
EC50 (HT-29): 3.26 µg/mL (≈ 11.7 µM)
Activity [2]: 0%
Activity (Spodoptera eridania): 0%
Activity (Tetranychus urticae): 0%
Activity (Aphis gossypii): 0%
EC50 (MCF7): 4.58 µg/mL (≈ 16.5 µM)
